pIC50: −log10 of the molar value.
Key:
Autotaxin [1] = target: T1, Autotaxin (Homo sapiens, UniProt Q13822); test: Inhibition of human ATX using LPC as substrate measured after 2 hrs by fluorescence based choline release assay
Autotaxin [2] = target: T1, Autotaxin; test: Inhibition of recombinant human ATX expressed in Sf9 cells using FS-3 as substrate measured after 1 hrs by fluorescence based assay
Autotaxin [3] = target: T1, Autotaxin; test: Inhibition of human ATX using FS-3 as substrate measured after 1 hrs by fluorescence based […] assay
Autotaxin [4] = target: T1, Autotaxin; test: Inhibition of ATX (unknown origin) using […] as substrate
Autotaxin [5] = target: T1, Autotaxin; test: Inhibition of ATX in human blood; assay type: tissue-based
Autotaxin [6] = target: Autotaxin (Mus musculus, UniProt Q9R1E6); test: Inhibition of ATX in mouse plasma; assay type: cell-free
Autotaxin [7] = target: T1, Autotaxin; test: Inhibition of human ATX using LPC as substrate assessed as choline release measured after 1.5 hrs by fluorescence based assay
[8] = Inhibition of hen egg white ATX using LPC as substrate preincubated for 30 mins followed by substrate addition measured after 90 mins by choline release assay; parameters: species or system Gallus gallus
Autotaxin [9] = target: T1, Autotaxin; test: Inhibition of human ATX using LPC as substrate preincubated for 30 mins followed by substrate addition measured after 90 mins by choline release assay
Autotaxin [10] = target: T1, Autotaxin; test: Inhibition of ATX (unknown origin) using FS-3 as substrate

## O=C(Nc1cccc(F)c1)c1cc(S(=O)(=O)N2CCOCC2)c(Cl)cc1Cl
Autotaxin [1]
  pIC50: 7.36

## CS(=O)(=O)N(c1cc(C(=O)Nc2cc(F)c(Cl)c(F)c2)c(Cl)cc1Cl)C1CCOCC1
Autotaxin [2]
  pIC50: 6.66

## O=C(Nc1ccc(Br)cc1)c1cc(S(=O)(=O)N2CCCCC2)c(Cl)cc1Cl
Autotaxin [1]
  pIC50: 7.64
Autotaxin [3]
  pIC50: 7.68

## CCCn1cc(-n2c(C)c(Sc3cccc(C(=O)O)c3F)c3ccc(Cl)c(F)c32)cn1
Autotaxin [4]
  pIC50: 8.96
Autotaxin [5]
  pIC50: 8.05
Autotaxin [6]
  pIC50: 7.66

## Cc1c(Sc2cccc(C(=O)O)c2F)c2ccc(Cl)c(F)c2n1C(=O)N1CC2(CC2)c2ccccc21
Autotaxin [7]
  pIC50: 8.70

## N#CC1=C(N)Oc2n[nH]c(-c3ccc(OCc4ccc(F)cc4)cc3)c2[C@H]1c1ccc(Cl)c(Cl)c1
[8]
  pIC50: 7.06
Autotaxin [9]
  pIC50: 6.87

## CS(=O)(=O)N(c1cc(C(=O)Nc2cc(F)c(F)c(F)c2)c(Cl)cc1Cl)C1CCOCC1
Autotaxin [2]
  pIC50: 6.66

## CCc1nc2c(C)cc(-c3ccc(C(=O)N4CCN(CCO)CC4)cc3)cn2c1NC(=O)OCc1ccc2c(c1)OCO2
Autotaxin [10]
  pIC50: 8.57
